Reference: ChEMBL document CHEMBL3044890, “Peroxidizing Phytotoxicities of 1, 2-Alkylene-1, 2, 4-triazolidines and 3, 4-Alkylene-1, 3, 4-thiadiazolidines” (J Pestic Sci, 1996)

Molecular target: T1, Protoporphyrinogen IX oxidase (Zea mays, UniProt Q9FYV8)
T1 sequence (Q9FYV8 whole entry): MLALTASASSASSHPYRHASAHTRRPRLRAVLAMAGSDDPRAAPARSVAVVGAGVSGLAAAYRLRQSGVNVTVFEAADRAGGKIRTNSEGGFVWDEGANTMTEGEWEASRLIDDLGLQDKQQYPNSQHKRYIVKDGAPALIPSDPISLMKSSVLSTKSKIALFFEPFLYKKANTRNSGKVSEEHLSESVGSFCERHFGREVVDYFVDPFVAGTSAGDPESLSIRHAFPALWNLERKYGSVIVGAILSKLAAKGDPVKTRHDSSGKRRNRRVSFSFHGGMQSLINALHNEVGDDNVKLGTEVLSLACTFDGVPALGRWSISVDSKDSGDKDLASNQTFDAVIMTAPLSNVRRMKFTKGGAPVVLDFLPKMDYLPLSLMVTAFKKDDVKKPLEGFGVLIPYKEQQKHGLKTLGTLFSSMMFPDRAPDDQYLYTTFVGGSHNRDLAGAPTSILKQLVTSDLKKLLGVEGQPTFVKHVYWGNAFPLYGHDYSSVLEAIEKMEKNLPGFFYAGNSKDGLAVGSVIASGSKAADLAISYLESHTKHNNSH
Experiment: Inhibition of Zea mays cv. Anjou (maize) plastid Protoporphyrinogen IX oxidase assessed as inhibition of protoporphyrin IX by fluorescence spectrophotometry
Conditions: read-out: pI50 (converted)

First: S=c1n(-c2ccc(Br)cc2)c(=S)n2n1CCC2
Second: S=c1n(-c2ccc(Br)cc2)c(=S)n2n1CCCCC2
The IC50 of the first is 2.5-fold lower: 28.8 nM for the first, 70.8 nM for the second.

Going from `S=c1s/c(=N\c2ccc(Br)cc2)n2n1CCC2` to `O=c1s/c(=N\c2ccc(Br)cc2)n2n1CCC2`, the IC50 rises from 324 nM to 3630 nM (11-fold).

First: O=c1n(-c2ccc(Br)cc2)c(=O)n2n1CCCC2
Second: O=c1n(-c2ccc(Br)cc2)c(=O)n2n1CCCCC2
The IC50 of the first is 7.4-fold lower: 339 nM for the first, 2510 nM for the second.

Going from `O=c1n(-c2ccc(Br)cc2)c(=S)n2n1CCCC2` to `O=c1n(-c2ccc(Br)cc2)c(=S)n2n1CCCCC2`, the IC50 rises from 12.9 nM to 129 nM (10-fold).

Going from `O=C1C2=C(CCCC2)C(=O)N1c1ccc(Br)cc1` to `O=c1n(-c2ccc(Br)cc2)c(=O)n2n1CCC2`, the IC50 rises from 50.1 nM to 617 nM (12-fold).

Molecule `O=c1n(-c2ccc(Br)cc2)c(=S)n2n1CCC2` has an IC50 of 53.7 nM.
